Drawing on ChEMBL document CHEMBL4184247, “Development of a series of novel o-phenylenediamine-based indoleamine 2,3-dioxygenase 1 (IDO1) inhibitors” (Bioorg Med Chem Lett, 2018), this text covers IC50 for 16 compounds.

For the assay, the target named is Indoleamine 2,3-dioxygenase 1 (Homo sapiens, UniProt P14902). Briefly: Inhibition of IDO1 in IFN-gamma stimulated human HeLa cells assessed as inhibition of kynurenine production pre-incubated for 1 hr followed by IFN-gamma addition and measured after 18 hrs. In kind it is cell-based.
Chain of Indoleamine 2,3-dioxygenase 1 (P14902 whole entry): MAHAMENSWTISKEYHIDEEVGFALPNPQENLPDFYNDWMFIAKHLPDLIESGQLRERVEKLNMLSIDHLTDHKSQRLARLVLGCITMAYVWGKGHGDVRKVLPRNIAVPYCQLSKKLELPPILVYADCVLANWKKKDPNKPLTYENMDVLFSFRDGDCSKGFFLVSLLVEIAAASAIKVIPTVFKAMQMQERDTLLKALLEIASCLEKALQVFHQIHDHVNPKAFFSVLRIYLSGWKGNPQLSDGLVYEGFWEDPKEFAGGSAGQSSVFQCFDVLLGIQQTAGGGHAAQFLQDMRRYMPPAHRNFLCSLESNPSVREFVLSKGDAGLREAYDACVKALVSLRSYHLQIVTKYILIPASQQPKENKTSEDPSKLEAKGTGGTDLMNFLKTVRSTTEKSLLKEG

With `Cc1ccc(NC(=O)Nc2cc(-c3cccc(C(=O)O)c3)ccc2Oc2ccccc2C(C)(C)C)cc1`, the IC50 (as a rule, the midpoint of a concentration-inhibition curve) is more than 1 µM.

As to `CCCCN(CCCC)c1ccc(-c2ccccc2C(=O)O)cc1NC(=O)Nc1ccc(C)cc1`, the IC50 amounted to 0.045 µM. Then `Cc1ccc(NC(=O)Nc2cc(-c3ccc(C(=O)O)cc3)ccc2Oc2ccccc2C(C)(C)C)cc1`, with more than 1 µM; and `Cc1ccc(NC(=O)Nc2cc(-c3ccccc3NS(C)(=O)=O)ccc2N(CC(C)C)CC(C)C)cc1`, with more than 1 µM.

As to `COCCN(CCOC)c1ccc(-c2ccccc2C(=O)O)cc1NC(=O)Nc1ccc(C)cc1`, the IC50 is more than 1 µM.

For `Cc1ccc(NC(=O)Nc2cc(-c3ccccc3-c3nnn[nH]3)ccc2N(CC(C)C)CC(C)C)cc1`, the half-maximal inhibitory concentration (IC50) was 0.004 µM. Then `Cc1ccc(NC(=O)Nc2cc(-c3ccccc3C(=O)NS(=O)(=O)C(F)(F)F)ccc2N(CC(C)C)CC(C)C)cc1`, with more than 1 µM; and `Cc1ccc(N2CCN(c3cc(-c4ccccc4-c4nnn[nH]4)ccc3N(CC(C)C)CC(C)C)C2=O)cc1`, with 0.028 µM; and `CCN(c1ccc(-c2ccccc2C(=O)O)cc1NC(=O)Nc1ccc(C)cc1)C1CCCC1`, with 0.023 µM. As to `Cc1ccc(NC(=O)Nc2cc(-c3ccccc3C(=O)O)ccc2N(CC(C)C)C(C)C)cc1`, the IC50 was 0.042 µM. Then `Cc1ccc(NC(=O)Nc2cc(-c3ccccc3NS(=O)(=O)C(F)(F)F)ccc2N(CC(C)C)CC(C)C)cc1`, with 0.076 µM; and `Cc1ccc(NC(=O)N(C)c2cc(-c3ccccc3-c3nnn[nH]3)ccc2N(CC(C)C)CC(C)C)cc1`, with 0.097 µM; and `Cc1ccc(NC(=O)Nc2cc(-c3ccccc3C(=O)O)ccc2N(C)C2CCCCC2)cc1`, with 0.014 µM.

Consider `Cc1ccc(NC(=O)Nc2cc(-c3ccccc3C(=O)O)ccc2N(C)c2ccccc2C(C)(C)C)cc1`, for which the half-inhibitory concentration (IC50) was more than 1 µM. As for `Cc1ccc(N(C)C(=O)Nc2cc(-c3ccccc3-c3nnn[nH]3)ccc2N(CC(C)C)CC(C)C)cc1`, the figure is 0.405 µM; as for `Cc1ccc(NC(=O)Nc2cc(-c3ccccc3C(=O)O)ccc2N(CC(C)C)CC(C)C)cc1`, 0.013 µM.
